System: phospho-ERK in melanoma derived WM-266-4 cells
Experiment: Mechanistic cellular assay for Raf kinase activity (phospho-ERK, Bio-Plex)
Format: cell-based
Conditions: Homo sapiens, treated 1-2 hr at 37° C., serum free medium, read-out: pERK EC50
From the text: (2) Mechanistic Cellular Assay for Raf Kinase Activity
The following method was utilized for quantifying the amount of phospho-ERK in melanoma derived WM-266-4 cells (one allele each of wild type BRaf and mutant BRaf (V600D) as an indicator of Raf kinase activity in cells treated with various kinase inhibitors.
(1) Detached adhered WM-266-4 cells from flask using 0.25% Trypsin. Resuspended cells in growth media (90% RPMI 1640, 10% FBS) and determine cell density.
(2) Seeded cells @ 10,000 cells/well in 96-well (flat bottom) tissue culture plates (36,000 cells/cm^2). Added growth media to a final volume of 200 uL/well and incubated overnight at 37° C.
(1) Prepared compound dilutions (1000× in DMSO) as follows. Starting with a stock of 5 mM compound in DMSO, diluted serially 3-fold in DMSO for a total of eight concentrations (5 mM, 1.67 mM, 0.556 mM, 0.185 mM, 0.062 mM, 0.021 mM, 0.007 mM, 0.002 mM).
(2) Prepared compound-containing media by adding 1 mL treatment media (100% RPMI 1640 without FBS) to 1 μL of compound dilution (from step 3).
(3) Removed plates (from step 2) from incubator. Aspirated media and replace with 150 μL compound-containing media. Incubate for 1-2 hr at 37° C.
(4) Removed plates (from step 5) from incubator and treated each as follows: aspirated compound-containing media and replaced with 300 μL ice-cold 1×PBS, aspirated PBS and replaced with 45 μL lysis buffer (Biorad Bio-Plex lysis buffer containing 0.4% v/v lysis buff. Factor 1, 0.2% v/v lysis buff. Factor 2, and PMSF to 2 mM final concentration), and then placed plate on ice until all plates were treated.
(5) After all plates were processed (step 6), placed plates on an orbital shaker and shook at room temperature for at least 15 min.
(6) Finally, removed plates from shaker, and transfered 40 μL/well of lysate from each to new corresponding 96-well V-bottom plates. At this point, samples may be frozen and stored @−80 C.°.
(1) Thaw (if necessary) plates (from step 8) and added 40 μL of Phospho-Protein Assay Buffer to each 40 μL lysate for a 1:1 dilution.
(2) Prepared phospho-ERK1,2 Bioplex beads by diluting 1:50 with Bioplex Wash Buffer (mixing 49 μL Wash Buffer with 1 μL of phospho-ERK1,2 Bioplex beads for each sample to be analyzed). Protected from light by wrapping tube in aluminum foil and kept at room temperature.
(3) Prepared Filter Plate by adding 100 μL/well Bioplex Wash Buffer and removed by vacuum filtration.
(4) Add 50 μL of bead solution (from step 10) to each well of a prepared Filter Plate (from step 11) and vacuum filter. Wash/filter 2× with 100 μL/well Wash Buffer.
(5) Added 50 μL of each lysate to appropriate well of the Filter Plate (from step 12). For this and all subsequent plate incubation steps, placed plate on an inverted plate cover (reduces background), and wrapped in aluminum foil (to protect from light). Shook overnight at room temperature. Included positive (control lysate) and negative (lysis buffer) controls.
(1) Prepared detection antibody (phospho-ERK1,2 Ab) by diluting 1:25 with Detection Antibody Dilution Buffer Buffer (mixing 24 μL Detection Antibody Dilution Buffer with 1 μL of phospho-ERK1,2 Ab for each sample to be analyzed).
(2) Removed plate (from step 13) from shaker and vacuum filter. Washed/filter plate 3× with 100 μL/well Wash Buffer. Added 25 μL of diluted antibody to each well. Incubated on shaker at RT for 30-45 min.
(3) Prepared streptavidin-PE by diluting 1:100 with Wash Buffer (mixing 49.5 μL Wash Buffer with 0.5 μL of 100× streptavidin-PE for each sample to be analyzed). Protected from light.
(4) Removed plate (from step 15) from shaker and vacuum filter. Washed/filter plate 3× with 100 μL/well Wash Buffer. Add 50 μL of diluted streptavidin-PE solution (from step 16) to each sample well. Incubated on shaker for 10-20 min.
(5) Removed plate from shaker and vacuum filter. Wash/filter plate 3× with 100 μL/well Bead Resuspension Buffer. After last wash resuspended beads in 125 μL Bead Resuspension Buffer. […]

## CC(=N)Nc1nc2cnc(C(=O)NC(C)c3cnc(Nc4ccc(C(F)(F)F)cc4)s3)cc2n1C (stereo not shown) [Example 200]
  EC50: 1000 to 10000 nM

## C[C@@H](NC(=O)c1cnc(N)n1C1CC1)c1ncc(C(=O)Nc2cc(C(F)(F)F)c(Cl)cn2)s1 [Example 154]
  EC50: 100 to 1000 nM

## CC(NC(=O)c1cnc2n1CCN(C(=O)OC(C)(C)C)C2)c1cnc(Nc2ccc(C(F)(F)F)cc2)s1 (stereo not shown) [Example 313]
  EC50: 1000 to 10000 nM

## C[C@@H](NC(=O)c1cc2c(cn1)ncn2C1CN(S(C)(=O)=O)C1)c1cnc(Nc2ccc(C(F)(F)F)cc2)cn1 [Example 345]
  EC50: ≤ 100 nM

## CC(NC(=O)c1cc2c(cn1)ncn2C)c1cnc(Nc2cnc(C(C)(C)C)nc2)s1 (stereo not shown) [Example 240]
  EC50: ≤ 100 nM

## C[C@@H](NC(=O)c1cn(C)cn1)c1ncc(C(=O)Nc2cc(C(F)(F)F)c(Cl)cn2)s1 [Example 143]
  EC50: 1000 to 10000 nM

## C[C@@H](NC(=O)c1cc2cn(C)nc2cn1)c1cnc(Nc2ccc(C(F)(F)F)cc2)s1 [Example 205]
  EC50: ≤ 100 nM

## CC(NC(=O)c1cc2c(cn1)ncn2C)c1cnc(Nc2ccc(Cl)c(C(F)(F)F)c2)s1 (stereo not shown) [Example 258]
  EC50: 100 to 1000 nM

## Cc1c(C(=O)N[C@H](C)c2ncc(C(=O)Nc3cc(C(F)(F)F)c(Cl)cn3)s2)cnn1-c1ccccc1 [Example 114]
  EC50: 1000 to 10000 nM

## C[C@@H](NC(=O)c1cnc2ccccn12)c1ncc(C(=O)Nc2cc(C(F)(F)F)c(Cl)cn2)s1 [Example 135]
  EC50: ≤ 100 nM

## CC(NC(=O)c1cc2cn[nH]c2cn1)c1cnc(Nc2ccc(C(F)(F)F)cc2)s1 (stereo not shown) [Example 202]
  EC50: 1000 to 10000 nM

## C[C@@H](NC(=O)c1cnc2n1CCCC2)c1ncc(C(=O)Nc2cc(C(F)(F)F)c(Cl)cn2)s1 [Example 335]
  EC50: ≤ 100 nM

## C[C@H](NC(=O)c1cc2c(cn1)ncn2C)c1cnc(Nc2cnc(C(C)(C)C)nc2)s1 [Example 242]
  EC50: 1000 to 10000 nM

## CC(NC(=O)c1ccc2[nH]ncc2c1)c1ccc(C(=O)Nc2cccc(C(F)(F)F)c2)s1 (stereo not shown) [Example 195]
  EC50: 1000 to 10000 nM

## CC(NC(=O)c1cc2c(cn1)ncn2C1CC1)c1cnc(Nc2ccc(C(F)(F)F)cc2)s1 (stereo not shown) [Example 19]
  EC50: ≤ 100 nM

## C[C@@H](NC(=O)c1cc2c(cn1)ncn2C1CN(CC(=O)O)C1)c1cnc(Nc2ccc(C(F)(F)F)cc2)s1 [Example 349]
  EC50: 1000 to 10000 nM

## CC(NC(=O)c1cnn2cc(Br)ccc12)c1ncc(C(=O)Nc2cc(C(F)(F)F)c(Cl)cn2)s1 (stereo not shown) [Example 319]
  EC50: 100 to 1000 nM

## C[C@H](NC(=O)c1cc2c(cn1)ncn2C)c1cnc(Nc2ccc(C(F)(F)F)cc2)cn1 (single isomer, unassigned) [Example 36]
  EC50: 1000 to 10000 nM

## CC(NC(=O)c1cc2c(cn1)ncn2C1CCCC1)c1cnc(Nc2ccc(C(F)(F)F)cc2)s1 (stereo not shown) [Example 17]
  EC50: ≤ 100 nM

## CC(NC(=O)c1cc2c(cn1)ncn2C)c1cnc(Nc2cc(Cl)ncn2)s1 (stereo not shown) [Example 260]
  EC50: 1000 to 10000 nM

## CC(NC(=O)c1cc2c(cn1)ncn2C(C)C)c1cnc(Nc2ccc(C(F)(F)F)cc2)s1 (stereo not shown) [Example 12]
  EC50: ≤ 100 nM

## CCn1cnc2cnc(C(=O)N[C@H](C)c3cnc(Nc4ccc(C(F)(F)F)cc4)s3)cc21 [Example 20]
  EC50: ≤ 100 nM

## CC(C)S(=O)(=O)N1CC(n2cnc3cnc(C(=O)N[C@H](C)c4cnc(Nc5ccc(C(F)(F)F)cc5)cn4)cc32)C1 [Example 343]
  EC50: ≤ 100 nM

## CC(NC(=O)c1cncc(Br)c1)c1ncc(C(=O)Nc2cc(C(F)(F)F)c(Cl)cn2)s1 (stereo not shown) [Example 50]
  EC50: 1000 to 10000 nM

## Cc1ncc(C(=O)NC(C)c2ncc(C(=O)Nc3cc(C(F)(F)F)c(Cl)cn3)s2)n1-c1ccncc1 (stereo not shown) [Example 159]
  EC50: ≤ 100 nM

## CC(NC(=O)c1cnn2cc(-c3cncc(F)c3)ccc12)c1ncc(C(=O)Nc2cc(C(F)(F)F)c(Cl)cn2)s1 (stereo not shown) [Example 329]
  EC50: ≤ 100 nM

## CC(C)Cn1cnc2cnc(C(=O)NC(C)c3cnc(Nc4ccc(C(F)(F)F)cc4)s3)cc21 (stereo not shown) [Example 15]
  EC50: ≤ 100 nM

## COc1cc(-c2ccc3c(C(=O)NC(C)c4ncc(C(=O)Nc5cc(C(F)(F)F)c(Cl)cn5)s4)cnn3c2)ccn1 (stereo not shown) [Example 330]
  EC50: 100 to 1000 nM

## CC(NC(=O)c1cccc(-c2cccnc2)c1)c1ncc(C(=O)Nc2cc(C(F)(F)F)c(Cl)cn2)s1 (stereo not shown) [Example 47]
  EC50: 100 to 1000 nM

## CC(NC(=O)c1cc2c(cn1)ncn2C)c1cnc(Nc2ccc(C(C)(C)C(F)(F)F)cc2)s1 (stereo not shown) [Example 272]
  EC50: 100 to 1000 nM

## C[C@@H](NC(=O)c1cnc2n1CCNC2)c1ncc(C(=O)Nc2cc(C(F)(F)F)c(Cl)cn2)s1 [Example 315]
  EC50: 100 to 1000 nM

## CC(NC(=O)c1cn2c(NC(C)(C)CC(C)(C)C)cnc2cn1)c1ncc(Nc2ccc(C(F)(F)F)cc2)s1 (stereo not shown) [Example 301]
  EC50: 1000 to 10000 nM

## Cc1nc2cnc(C(=O)NC(C)c3ncc(Nc4ccc(C(F)(F)F)cc4)s3)cn2c1Cl (stereo not shown) [Example 308]
  EC50: 1000 to 10000 nM

## CC(NC(=O)c1cnn2cc(-c3ccc(N4CCOCC4)nc3)ccc12)c1ncc(C(=O)Nc2cc(C(F)(F)F)c(Cl)cn2)s1 (stereo not shown) [Example 323]
  EC50: ≤ 100 nM

## CC(NC(=O)c1cccc(N2CCOCC2)c1)c1ncc(C(=O)Nc2cc(C(F)(F)F)c(Cl)cn2)s1 (stereo not shown) [Example 45]
  EC50: 1000 to 10000 nM

## CC(NC(=O)c1cc2c(cn1)ncn2CC(C)(C)C)c1cnc(Nc2ccc(C(F)(F)F)cc2)s1 (stereo not shown) [Example 16]
  EC50: 100 to 1000 nM

## Cc1ccc2cc(C(=O)N[C@H](C)c3ncc(C(=O)Nc4cc(C(F)(F)F)c(Cl)cn4)s3)ccc2n1 [Example 60]
  EC50: 100 to 1000 nM

## C[C@@H](NC(=O)c1ccc2nccnc2c1)c1ncc(C(=O)Nc2cc(C(F)(F)F)c(Cl)cn2)s1 [Example 63]
  EC50: ≤ 100 nM

## CNc1ncc(C(=O)N[C@H](C)c2ncc(C(=O)Nc3cc(C(F)(F)F)c(Cl)cn3)s2)s1 [Example 104]
  EC50: 100 to 1000 nM

## CC(NC(=O)c1ccc2cn[nH]c2c1)c1ccc(C(=O)Nc2cccc(C(F)(F)F)c2)s1 (stereo not shown) [Example 194]
  EC50: 1000 to 10000 nM

## CC(NC(=O)c1cnn2cc(-c3ccc(F)nc3)ccc12)c1ncc(C(=O)Nc2cc(C(F)(F)F)c(Cl)cn2)s1 (stereo not shown) [Example 322]
  EC50: 100 to 1000 nM

## CC(NC(=O)c1cc2c(cn1)ncn2CCS(C)(=O)=O)c1cnc(Nc2ccc(C(F)(F)F)cc2)s1 (stereo not shown) [Example 184]
  EC50: 100 to 1000 nM

## CC(NC(=O)c1cccc(-n2ccnc2)c1)c1ncc(C(=O)Nc2cc(C(F)(F)F)c(Cl)cn2)s1 (stereo not shown) [Example 48]
  EC50: 100 to 1000 nM

## CC(NC(=O)c1cc2cn(C)nc2cn1)c1cnc(Nc2ccc(C(F)(F)F)cc2)cn1 (stereo not shown) [Example 206]
  EC50: 100 to 1000 nM

## COc1cn2ncnc(C(=O)NC(C)c3cnc(Nc4ccc(C(F)(F)F)cc4)s3)c2c1C (stereo not shown) [Example 337]
  EC50: 100 to 1000 nM

## CCn1cncc1C(=O)N[C@H](C)c1ncc(C(=O)Nc2cc(C(F)(F)F)c(Cl)cn2)s1 [Example 145]
  EC50: 100 to 1000 nM

## C[C@@H](NC(=O)c1cnc2sccn12)c1ncc(C(=O)Nc2cc(C(F)(F)F)c(Cl)cn2)s1 [Example 165]
  EC50: 100 to 1000 nM

## CC(NC(=O)c1cn2c(N)cnc2cn1)c1ncc(Nc2ccc(C(F)(F)F)cc2)s1 (stereo not shown) [Example 302]
  EC50: 100 to 1000 nM

## CC(NC(=O)c1cnn2cc(-c3ccnc(F)c3)ccc12)c1nc(C(=O)Nc2cc(C(F)(F)F)c(Cl)cn2)cs1 (stereo not shown) [Example 326]
  EC50: 100 to 1000 nM

## CC(NC(=O)c1cnn2cc(-c3cnc(N)nc3)ccc12)c1ncc(C(=O)Nc2cc(C(F)(F)F)c(Cl)cn2)s1 (stereo not shown) [Example 327]
  EC50: ≤ 100 nM

## C[C@@H](NC(=O)c1ccc2ncsc2c1)c1ncc(C(=O)Nc2cc(C(F)(F)F)c(Cl)cn2)s1 [Example 61]
  EC50: ≤ 100 nM

## CCn1c(C(=O)N[C@H](C)c2ncc(C(=O)Nc3cc(C(F)(F)F)c(Cl)cn3)s2)cnc1C [Example 151]
  EC50: ≤ 100 nM

Source: patent US20120040951A1, “HETEROARYL COMPOUNDS USEFUL AS RAF KINASE INHIBITORS” (priority 2008, published 2012)
